{"source": "paper PMC9474773", "about": "“PARP targeted Auger emitter therapy with [^125I]PARPi-01 for triple-negative breast cancer” (EJNMMI Research, 2022)", "key": {"[1]": {"test_system": "subcutaneous MDA-MB-231 models", "assay": "Endogenous therapy study (CT-based tumour growth, survival, [18F]FDG PET)", "assay_type": "in vivo, NOD/SCID mice", "experimental": "Female NOD/SCID mice at 5–6 weeks of age (Janvier, France) was used for developing subcutaneous TNBC tumour. Animals were housed in 20–24 °C in a 12 h day light cycle. For each mouse, 3 × 10^6 MDA-MB-231 cells were suspended in a 1:1 (volume) mixture of Culture media: Matrigel® matrix (Corning®, Product No: 356237). Mice were inoculated with this cell suspension (max 200 µl) subcutaneously in the right flank. Tumour growth was monitored daily using calliper measurements. Tumour volume was calculated daily according to the formula Tumourvolume=TumourLength×Tumourbreadth^2×0.52\nUpon reaching of a tumour volume of 500 mm^3, animals were proceeded for experiments. For biodistribution study animals were administered with [^123I]PARPi-01 (n = 3). For therapy studies animals were randomized for control (n = 10) or [^125I]PARPi-01 administration (n = 10). Randomisation was done based on equivalent distribution of tumour volumes. In addition to the daily calliper measurements image analysis of CT based tumour volumes was blinded to avoid bias. Animals were sacrificed upon completion of biodistribution study or upon reaching a humane end point for the therapy study. Humane end point is determined as reaching of either of the following conditions: 15 mm tumour diameter, 1500 mm^3 tumour volume, or development of ulcers/ascites.\nMice were administered intravenously via lateral tail vain with Saline (0.9% NaCl) or [^125I]PARPi-01 (8.15 ± 2.9 MBq/dose) in four doses at 10-day intervals. The tumour volume was measured using [^18F]FDG based PET/CT (Trifoil, USA) once per week. [^18F]FDG (2.3 ± 0.4 MBq, AAA, Düsseldorf, Germany) was intraperitoneally administered and scanned 30 min later. Upon reaching 520 mm^3 tumour volume, one additional CT imaging per week (Trifoil, USA) apart from the PET/CT was performed for monitoring tumour growth.\nAfter injection with [^18F]FDG, the mice were placed on the scanner bed and the CT scan was initiated. The exposure settings used were as follows: 130 uA, 75 kVp, 230 ms exposure time, and 360° rotation with 512 views; the duration of the CT scans was ~ 5 min. A dynamic 30 min PET scan was initiated at the end of the CT scan. […] During the scans, the isoflurane concentration was adapted to achieve a respiratory rate between 75–50 breaths per minute. Mice were maintained at 1% Isoflurane and heated at 37 °C from anaesthesia induction to the end of imaging. The CT images were reconstructed using a Feldkamp filtered back projection reconstruction process to a voxel size of 0.154 × 0.154 × 0.154 mm in a 592 × 592 × 560 matrix. Using vendor software, the CT values were converted into Hounsfield units (HU) using the following formula HU=1000×μt-μw÷μw where µw is the linear attenuation coefficient of the water and µt is the linear attenuation coefficient of the tissue. The PET data were reconstructed using a 3D ordered-subset expectation maximization (i.e., OSEM-3D with three iterations and eight subsets) with a maximum a posteriori probability algorithm (30 iterations) into a 240 × 240 × 192 image matrix (resulting in final voxel dimensions of 0.25 × 0.25 × 0.597 mm). PET normalization, CT attenuation correction, and CT scatter correction were applied to all PET reconstructions. The PET images were automatically aligned to the CT using a custom-made transformation in PMOD software package from a capillary phantom.\nAll statistical analyses were performed using the Graph-Pad Prism software (Version 9.1.1). Biodistribution data is expressed as mean ± standard deviation. Kaplan–Meier Survival curve was analysed using survival analysis (Log rank Mantel-Cox test). The data points of the normalized tumour volume as a function of the time of the groups (Control, ^125I-PARPi, Control—excluded ulcers, ^125I-PARPi—excluded ulcers) were subjected to nonlinear regression analysis using the exponential growth formula Y = Y0*exp(k*x) (Malthusian). Accordingly, the doubling time is equal to ln(2)/k. […]"}, "[2]": {"test_system": "MDA-MB-231 cells", "set-up": "method as in PMID 35008392", "conditions": "cited from earlier work"}}, "data": [{"smiles": "O=C(c1ccc([125I])cc1)N1CCN(C(=O)c2cc(Cc3n[nH]c(=O)c4ccccc34)ccc2F)CC1", "note": "[[^125I]PARPi-01]", "values": [{"measurement": "radiotoxicity in liver and thyroid", "setting": "[1]; 4 doses, 10 MBq/dose", "result": "No radiotoxicity was detected"}, {"measurement": "tumour doubling time", "setting": "[1]; CT-based, excluding animals sacrificed for ulcers/ascites, n = 5", "result": 15.07, "unit": "days"}, {"measurement": "tumour doubling time", "setting": "[1]; CT-image-based, 4 doses 10 days apart, all animals n = 10", "result": 14.2, "unit": "days"}, {"measurement": "median survival", "setting": "[1]; all animals n = 10, not significant vs control (P = 0.2505)", "result": 36, "unit": "days"}, {"measurement": "median survival time", "setting": "[1]; excluding animals sacrificed for ulcers/ascites", "result": 38}, {"measurement": "[18F]FDG PET SUV values and tumour metabolic volumes, therapy vs control", "setting": "[1]; mouse, in vivo", "result": "did not show significant difference"}, {"measurement": "colony formation after treatment", "setting": "[2]", "result": "significant reduction in colony formation"}]}]}
